Data set [1] is described as follows: In vitro antiviral activity against number of RNA virus was reported; Inactive. It counts as functional.
Data set [2] is described as follows: In vitro antiviral activity against number of DNA virus was reported; Inactive. It counts as functional.
Data set [3] in a line: Lethal dose in L1210-bearing female BDF1 mice. It counts as toxicity, organism-based. To be noted: BDF1, mouse, in vivo.
The species named for data set [4] is Mus musculus. The data set is described as follows: Compound was tested against L1210 infected BDF1 mice expressed as weight change at 72 hour. It is filed as functional.
The species entered for data set [5] is Mus musculus. Nature of the data set: Compound was tested against L1210 infected BDF1 mice expressed as weight change at 24 hour. It is filed as functional.
Data set [6] relates to Mus musculus. The data set is described as follows: Compound was tested against L1210 infected BDF1 mice at 480 mg/kg expressed as percent increase in life span. It counts as functional.

The text below walks through data of ChEMBL document CHEMBL1125044, “1,2,4-Diazaphosphole nucleosides. Synthesis, structure, and antitumor activity of nucleosides with a lambda 3 phosphorus atom” (J Med Chem, 1990).

Molecules are shown by their SMILES. The source made the active and inactive calls. No cut-off for these calls is given here.

As for `NC(=O)c1nn(C2O[C@H](CO)[C@@H](O)[C@H]2O)cp1` (stereo partly specified), the result in data set [1] and in data set [2] was inactive. Further, the LD50 (as a rule, the dose expected to kill half of the subjects tested) in data set [3] is 480 mg/kg.

In the case of `NC(=S)c1nn(C2O[C@H](CO)[C@@H](O)[C@H]2O)cp1` (stereo partly specified), the Weight change in the data set filed under Mus musculus [4] is on record as -0.67 g; in the data set filed under Mus musculus [5], -1.67 g. Besides, the ILS (as a rule, how much longer treated animals lived than controls) at 480 mg/kg with Mus musculus [6] is 25%.
